Measurements from patent publication US8163528B2, “Nucleic acid molecules encoding thymidine kinase fusion proteins” (Darwin Molecular Corporation, priority 1997, dated 2012).

How the values were obtained:
[1] = Time course analysis of mutant enzymes (thymidine phosphorylation); assay type: biochemical; conditions: 30° C., 0-30 minutes; adjusted to protein synthesis
Experimental: For the high-activity mutant enzymes, unlabeled translation products were diluted 1/9 and incubated for 0, 5, 10, 20, or 30 minutes at 30° C.
The low-activity mutants were diluted 1/5, and the rate of phosphorylation as a function of time was also determined.

[2] = Substrate specificity assay of cell-free translation products, deoxycytidine; assay type: biochemical
Text: (§1) No significant difference in phosphorylation efficiency was observed between pT7:MCC and pT7:HSVTKII when thymidine (1.3-fold), deoxycytidine (1.3-fold), GCV (0.8-fold), ACV (0.95-fold), or AZT (1.1-fold) were used as substrate. Furthermore, Sanderson et al. (J. Mol. Biol. 202:917-919, 1988) reported that the Km for thymidine and ATP and the Vmax of TK purified from E. coli harboring pHETK2 (the parent plasmid of pMCC) and HSV-1-infected cells were indistinguishable. Therefore, the alterations observed in the properties of the mutant TKs can be attributed to the nucleotide substitutions within the target region and that any differences between the vectors (pT7:MCC and pT7:HSVTKII) exerted only minor changes in catalytic properties.
(§2) Three of the mutants (P155A/F161V, F161I and F161C) were assayed in triplicate for the relative levels of phosphorylation using thymidine, deoxycytidine, ACV, GCV, or AZT as substrates. Briefly, forty-eight […] of each tritiated substrate was used in each assay reaction. Translation products were diluted for each nucleoside assay as follows (translation/H2O): 1/100, thymidine; 2/3, deoxycytidine, GCV, and AZT; 4/1, ACV. Each set of assays was incubated for 2 hours at 30° C. and the amount of phosphorylated product determined.

[3] = Substrate specificity assay of cell-free translation products, ACV; assay type: biochemical
Text: as §1, §2

[4] = assay type: biochemical; conditions: for thermal stability after 42° C. preincubation compared to HSVTKII: cell-free translation products
Experimental: To substantiate this observation, cell-free translation products were incubated at 42° C. for increasing times prior to being assayed for enzyme activity. Briefly, cell free translation (“CFT”) products of each high-activity mutant, -RNA, and HSVTKII samples were diluted 1/9 and incubated for 0, 5, 10, and 20 minutes at 42° C. The preincubated samples were then assayed for 5 minutes (P155A/F161V and F1611) or 20 minutes (-RNA, HSVTKII, F161C, and D162E). The percent of activity remaining was determined with the untreated samples set at 100%. […] Because F161C lost greater than 90% of enzyme activity within the first 20 minutes at 42° C., shorter incubation periods at 42° C. were performed […].
Low-activity mutant CFT products were diluted 1/5 and incubated for 0, 20, 40, or 60 minutes at 42° C. The preincubated samples were then assayed in triplicate for the thymidine phosphorylation for 60 minutes. The percent of activity remaining was determined using the untreated (time 0) sample as 100%.

KY895 = test: Secondary screen: colony formation on acyclovir, AZT, TK selection and LB plates; assay type: cell-based, E. coli; set-up: key: ++: the same number of colonies were observed as compared to control plates; +: fewer (<20% those observed with pMCC) and generally smaller (˜50% smaller diameter) colonies were observed as compared to control plates; −: no colonies were observed; conditions: for colonies on AZT plates: 1 μg/mL thymidine+0.05 μg/mL AZT; for colonies on AZT plates / colonies on ACV plates / colonies on TK selection plates, 37° C.: 37° C.; for colonies on ACV plates: 1 μg/mL thymidine+1 μg/mL acyclovir; for colonies on LB plates: LB+carb50 plates
Experimental: Mutant cultures were also spread onto duplicate TK selection and LB+carb50 plates. One set of TK selection plates and LB+carb50 plates were incubated at 42° C. All other plates were incubated at 37° C. After 16-24 hours the plates were scored.

[5] = Substrate specificity assay of cell-free translation products, thymidine; assay type: biochemical
Text: as §1, §2

BHK tk = test: Sensitivity of guanylate kinase transfectant pools to ACV in TK expressing clones; assay type: cell-based, hamster; conditions: guanylate kinase expression in the presence of wild-type TK
Experimental: pREP8-7, pREP8-7:hgmk and pREP8-7:mgmk are used to transfect BHK tk, TK-transfected clone C3 and 75-transfected clone D4. Histidinol is used to select pools of stable transfectants and to isolate individual clones.
As in Example 8, pools of transfectants are placed in 96 well microtiter dishes at 1000 cells/well. Eight replicates are incubated for three days in the presence of various GCV or ACV concentrations.

[6] = Kinetic analysis of fusion proteins, GMP; assay type: biochemical; conditions: purified protein

| Substance | TK activity in time course analysis compared to wild-type [1] | phosphorylation of deoxycytidine over the wild-type enzyme [2] [fold] | ACV phosphorylation over HSVTKII [3] [fold] | activity loss after 5 minutes at 42° C. ([4]; cell-free translation product) [%] | enzyme activity lost within the first 20 minutes at 42° C. ([4]; cell-free translation product) | colonies on AZT plates (KY895) | colonies on ACV plates (KY895) | colonies on TK selection plates, 37° C. (KY895) | colonies on TK selection plates, 42° C. (KY895) | colonies on LB plates (KY895) | phosphorylation of thymidine relative to HSVTKII [5] [fold] | thermal stability after 42° C. preincubation compared to HSVTKII [4] | increased sensitivity to ACV relative to TK expression alone (BHK tk) | Km [6] [µM] |
| --- | --- | --- | --- | --- | --- | --- | --- | --- | --- | --- | --- | --- | --- | --- |
| D162E | no difference in activities when compared to the wild-type TK enzyme activities |  |  |  |  |  |  |  |  |  |  |  |  |  |
| F161C | no difference in activities when compared to the wild-type TK enzyme activities | 2.8 | 2 | ~85 | greater than 90% | − | + (fewer (<20% those observed with pMCC) and generally smaller (˜50% smaller diameter) colonies were observed as compared to control plates) | ++ | ++ | ++ |  |  |  |  |
| F161I | statistically higher affinity for thymidine than the wild-type TK | 1.9 |  |  |  | + (fewer (<20% those observed with pMCC) and generally smaller (˜50% smaller diameter) colonies were observed as compared to control plates) | + (fewer (<20% those observed with pMCC) and generally smaller (˜50% smaller diameter) colonies were observed as compared to control plates) | ++ | ++ | ++ | 2.2 |  |  |  |
| F161I/R163H |  |  |  |  |  | ++ | ++ | ++ | + (fewer (<20% those observed with pMCC) and generally smaller (˜50% smaller diameter) colonies were observed as compared to control plates) | ++ |  | equivalent to HSVTKII |  |  |
| F161L | moderate ability to phosphorylate thymidine, albeit at a much reduced rate from HSVTKII |  |  |  |  | ++ | ++ | ++ | − | ++ |  | more thermolabile that HSVTKII |  |  |
| Guanylate kinase: guanylate kinase expressed from pREP8-7 constructs in wild-type TK clone C3 (human or murine not stated) |  |  |  |  |  |  |  |  |  |  |  |  | approximately 2 fold |  |
| P155A/F161V: HSV-1 TK, proline to alanine mutation at position 155 and phenylalanine to valine at position 161 | statistically higher affinity for thymidine than the wild-type TK | 2.8 | 2.4 |  |  | + (fewer (<20% those observed with pMCC) and generally smaller (˜50% smaller diameter) colonies were observed as compared to control plates) | ++ | ++ | ++ | ++ | 2.6 |  |  |  |
| gmk: wild-type guanylate kinase (murine gmk used in the fusions) |  |  |  |  |  |  |  |  |  |  |  |  |  | 25 |
